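These data come from cells grown in 96-well plates and exposed to compound for 48 hours at five concentrations. TGI: concentration producing complete growth inhibition.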
What was measured:
Assay in all cases: NCI-60 cell line screen, 48 h
786-0 renal = tested on: 786-0 renal
A498 renal = tested on: A498 renal
A549 NSCLC = tested on: A549 NSCLC
ACHN renal = tested on: ACHN renal
CAKI-1 renal = tested on: CAKI-1 renal
CCRF-CEM leukemia = tested on: CCRF-CEM leukemia
COLO 205 colon = tested on: COLO 205 colon
DLD-1 colon = tested on: DLD-1 colon
DMS 114 small cell lung = tested on: DMS 114 small cell lung
DMS 273 small cell lung = tested on: DMS 273 small cell lung
EKVX NSCLC = tested on: EKVX NSCLC
HCC-2998 colon = tested on: HCC-2998 colon
HCT-116 colon = tested on: HCT-116 colon
HCT-15 colon = tested on: HCT-15 colon
HL-60(TB) leukemia = tested on: HL-60(TB) leukemia
HOP-18 NSCLC = tested on: HOP-18 NSCLC
HOP-62 NSCLC = tested on: HOP-62 NSCLC
IGROV1 ovarian = tested on: IGROV1 ovarian
K-562 leukemia = tested on: K-562 leukemia
KM12 colon = tested on: KM12 colon
KM20L2 colon = tested on: KM20L2 colon
LXFL 529 NSCLC = tested on: LXFL 529 NSCLC
M14 melanoma = tested on: M14 melanoma
M19-MEL melanoma = tested on: M19-MEL melanoma
MALME-3M melanoma = tested on: MALME-3M melanoma
MOLT-4 leukemia = tested on: MOLT-4 leukemia
NCI-H226 lung = tested on: NCI-H226 lung
NCI-H460 lung = tested on: NCI-H460 lung
NCI-H522 lung = tested on: NCI-H522 lung
OVCAR-3 ovarian = tested on: OVCAR-3 ovarian
OVCAR-4 ovarian = tested on: OVCAR-4 ovarian
OVCAR-8 ovarian = tested on: OVCAR-8 ovarian
RPMI-8226 leukemia = tested on: RPMI-8226 leukemia
RXF-631 renal = tested on: RXF-631 renal
SF-268 CNS = tested on: SF-268 CNS
SF-539 CNS = tested on: SF-539 CNS
SK-MEL-2 melanoma = tested on: SK-MEL-2 melanoma
SK-MEL-28 melanoma = tested on: SK-MEL-28 melanoma
SK-MEL-5 melanoma = tested on: SK-MEL-5 melanoma
SK-OV-3 ovarian = tested on: SK-OV-3 ovarian
SN12C renal = tested on: SN12C renal
SNB-19 CNS = tested on: SNB-19 CNS
SNB-75 CNS = tested on: SNB-75 CNS
SNB-78 CNS = tested on: SNB-78 CNS
SR leukemia = tested on: SR leukemia
SW-620 colon = tested on: SW-620 colon
TK-10 renal = tested on: TK-10 renal
U251 CNS = tested on: U251 CNS
UACC-257 melanoma = tested on: UACC-257 melanoma
UACC-62 melanoma = tested on: UACC-62 melanoma
UO-31 renal = tested on: UO-31 renal

Measured: TGI

Cc1[nH]c(=O)nc(N/N=C/c2ccc(O)cc2)c1C(=O)Nc1ccc(Cl)cc1
> 100 µM: all assays above

— PubChem BioAssay (NCI)
